Several values for one entry are separate records, joined by “and”; a condition that tells them apart may be missing. Equal entries are not always repeated. Bounds are passed on as bounds.

The text below walks through data of publication PMC12196476, “New Nitrogen-, Oxygen-, and Sulfur-Containing Heterocyclic Compounds as Anti-Colon Cancer Agents: Synthesis, Multitargeted Evaluations, Molecular Docking Simulations and ADMET Predictions” (Pharmaceuticals, 2025).

For one test, the system named is LoVo cells. Nature of the test: Intracellular ROS level (human ROS ELISA kit), LoVo. The test is classed as cell-based. To be noted: 30 µg/mL, 48 h. As to the method: To determine whether compound 3d induces oxidative stress, intracellular ROS levels were quantified after treatment (30 µg/mL, 48 h) using a human ROS ELISA kit.
A Human ROS ELISA Kit was used to measure the intracellular accumulation of ROS in the 3d-treated LoVo and HCT-116 cells. […]
medium served used as negative and positive controls, respectively. Percentages of viable cells […]
wells (final concentration of 100 μg/mL), compared to the negative control, and expressed as mean value (%) ± SD from two replicates. Graphing dose-response curves representing the compound […]
(HUVECs) at final concentration of 100 μg/mL . HUVECs were grown in Dulbecco’s Modified Eagle’s Medium supplemented with 10% FBS, 2 mM glutamine (Sigma Aldrich), 100 units/mL penicillin and […] streptomycin (Life Technologies; Paisley, UK).
S3.2.5. Cell cycle assay.
HCT-116 and LoVo cultures upon treatment with compound 3d. HCT-116 and LoVo carcinoma […]
μg/mL for 48 h. […] Then, cells […]
were fixed by mixing […] of 90% cold ethanol and stained with propidium iodide (PI) for 1 h at 37 °C. RNase A (10 mg/mL) was added in order to […] the ability of PI to bind only to DNA […]
S3.2.6. Annexin-V-FITC assay. […]
treatment with compound 3d. […]
of stained cancerous cells were determined. […]
carcinoma cells treated with compound 3d was assessed using the TMRE Mitochondrial Membrane
In general terms: In an ELISA, binding on a coated surface is turned into a signal by an enzyme label.

The target in test [1] is recombinant human LDHA protein (Homo sapiens, UniProt P00338). Nature of the test: In vitro LDHA inhibitory assay (NADH consumption). The test is classed as biochemical.
The subject of test [2] is HCT-116 colon carcinoma cells. Nature of the test: Cell viability, LDH release assay, HCT-116. To be noted: Homo sapiens, HCT-116, 48 h. For orientation: Release of lactate dehydrogenase indicates damage to the cell membrane.

Take `COc1cc(/C=N/c2ncnc3sc4c(c23)CCCC4)cc(OC)c1OC` [Compound 3d, (E)-N-(5,6,7,8-Tetrahydrobenzo[4,5]thieno[2,3-d]pyrimidin-4-yl)-1-(3,4,5-trimethoxyphenyl)methanimine]: in the test on LoVo cells, the “ROS, Fold of control, LoVo” value worked out at 2.6. Further, in the test on LoVo cells (control 168.6 ± 6.5, two independent experiments), the “[ROS] pg/mL ± SD, LoVo” value is 434.5 ± 20.3 pg/mL and 434.5 pg/mL. In addition, in test [1] (100 µg/mL, three replicates, read-out: Mean Inhibition Percent ± SD, LDHA), the inhibition at 100 µg/mL was found to be 85.9 ± 2.97%. The IC50 was 149 ± 7.93 µM in test [1] (three independent experiments, read-out: Mean IC50 µM ± SD, LDHA) and 161 µM in test [2] (read-out: Mean IC50 Values in µM ± SD, HCT-116 cells). In addition, the viability at 100 µg/mL in test [2] (read-out: Mean % of viable cells ± SD, HCT-116, 100 µg/mL, 48 h, LDH release assay) was below 29%.

As a reminder, the inhibition is the drop in the measured response relative to a control, in per cent. What is called IC50 is the point on the concentration scale where inhibition reaches its midpoint.
